Experimental data published in patent US20230406850A1, “CRYSTALLINE FORM OF HETEROCYCLIC COMPOUND, PREPARATION METHOD THEREFOR AND APPLICATION THEREOF” (WUHAN LL SCIENCE AND TECHNOLOGY DEVELOPMENT CO., LTD., priority 2020, published 2023).
Converted amounts (≈) assume the structure as drawn. Read-outs that look alike come from different tables or passages of the source.

How the values were obtained:
[1] = Stability of crystalline form III slurried in DMSO/water mixed solvents; format: physicochemical; settings: for The experimental results (crystalline form): slurried three days at room temperature
[2] = Solubility in DMSO and DMSO/water mixed solvents; format: physicochemical
[3] = Mechanical stability test (grinding and pelleting); format: physicochemical
Experimental: The mechanical stability of crystalline forms I and III were investigated by grinding and pelleting. Grinding test method: the sample to be measured was put in a mortar and grinded for 2 minutes and 5 minutes respectively, then XRPD was test, and the changes of crystalline form and crystallinity were observed. Pelleting test method: the sample was placed in the die of tablet press, kept at 40 MPa for one minute, and then the crystalline form taken out to test XRPD.

[4] = Physical and chemical stability (stability boxes, XRPD and HPLC); format: physicochemical; settings: for Purity -7 days (peak area %) / XRPD: 7 days
Experimental: About 10 mg of crystalline forms I, III and V were placed in the stability boxes at 40° C./75% RH (open) and 60° C. (covered) for seven days, and some samples were taken out for XRPD and HPLC tests at 0 and 7 days, respectively, to investigate their physical and chemical stability.

[5] = Dynamic vapor sorption (DVS) hygroscopicity; format: physicochemical
Experimental: The solid was analyzed by DVS using IGA sorp dynamic vapor sorption instrument. • Temperature: 25° C. • Gas flow: 250 mL/min. • Scan cycle: 2. • Minimum test time: 30 min. • Maximum test time: 2 hours. • Waiting for balance: 98%.

[6] = Solid form change on dehydration, drying or ambient humidity (XRPD); format: physicochemical; settings: heating to dehydration, then ambient humidity
From the text: Combined with DSC and TGA pattern, it can be seen that the product is hydrate with about 0.34 water molecules.

[7] = Pharmacokinetics of crystalline form III, fasting and non-fasting; format: in vivo, Beagle dog; settings: for AUC(0-inf) / Cmax / MRT last / Tmax / half-life / AUC(0-t): beagle, dog, po, 100 mg/kg, 100 mg/kg po
Experimental: Beagle dog (general grade, Beijing Masi Biotechnology Co., Ltd.) was given compound A by single oral gavage to study the pharmacokinetics of the compound in plasma. The test drug (100 mg/kg dosage, 5 mL/kg administration volume) was given by gavage, and samples were collected at 10 minutes, 30 minutes, 1 hour, 2 hours, 4 hours, 6 hours, 8 hours, 10 hours, 24 hours and 48 hours after administration: peripheral venipuncture was performed, and about 1.0 mL whole blood was collected from each animal at every time point, and blood samples were collected. Within 60 minutes after blood collection, 0.2 mL of whole blood was separated into a cryopreservation tube, and deionized water was added at a ratio of 1:1, which was mixed upside down and then frozen. The remaining samples were centrifuged at 2,000 g at 2 to 8° C. for 10 min to obtain plasma samples, and the hemolysis of each sample was recorded, and the influence on detection was evaluated, and then the color of plasma was observed and recorded on the blood collection table (“−” means no hemolysis, “+” means pink supernatant and “++” means red supernatant).
The concentration of compound A in plasma was determined by LC-MS/MS method (Non-GLP). The pharmacokinetic parameters were calculated by WinNonlin (Phoenix™, version 8.1) or other similar software. If applicable plasma drug concentration-time data are available, the following pharmacokinetic parameters are calculated: CL (clearance), Vss (steady-state apparent volume of distribution), T1/2 (elimination half-life), Cmax (peak concentration), Tmax (peak time), AUC (area under the concentration-time curve), MRT (mean residence time). Pharmacokinetic data were described by descriptive statistics, such as mean, standard deviation and sample size.

[8] = female, whole blood, Non-fast, blood
[9] = female, whole blood, fast, blood
[10] = male, whole blood, Non-fast, blood

## COC(=O)N1CCO[C@@H](Cc2c(-c3c(F)cc(S(N)(=O)=O)cc3F)nc3cc(Cl)ccn23)C1 [Crystalline form III, methyl (S)-2-((7-chloro-2-(2,6-difluoro-4-sulfamoylphenyl)imidazo[1,2-a]pyridin-3-yl)methyl)morpholine-4-carboxylate]
[1]; DMSO/Water 1/2 V/V
  The experimental results (crystalline form): Crystalline form III
[1]; DMSO/Water 1/4 V/V
  The experimental results (crystalline form): Crystalline form III
[1]; DMSO/Water 2/3 V/V
  The experimental results (crystalline form): Crystalline form III
[1]; room temperature
  water content of DMSO/water in which the form is stable without crystal transformation: higher than 60 % (volume percentage)
[2]; aqueous with cosolvent or surfactant or cyclodextrin, DMSO/Water 1:2, RT
  Solubility: ~500 µg/mL (≈ 998 µM)
[2]; aqueous with cosolvent or surfactant or cyclodextrin, DMSO/Water 1:3, RT
  Solubility: ~280 µg/mL (≈ 559 µM)
[2]; aqueous with cosolvent or surfactant or cyclodextrin, DMSO/Water 1:4, RT
  Solubility: < 250 µg/mL
[2]; organic solvent or mixture, DMSO, RT
  Solubility: > 200000 µg/mL
[3]; 40 MPa, 1 min
  crystallinity after pelleting: decreases obviously
[3]; grinding 2 min and 5 min
  crystalline form and crystallinity after grinding: no obvious change in crystalline form and crystallinity
[4]; 0 days
  Initial purity (Peak area %): 99.34 peak area %
[4]; 40° C./75% RH (open)
  Purity -7 days (peak area %): 99.35 peak area %
  XRPD: Constant
[4]; 40° C./75% RH and 60° C., seven days
  stability conclusion in words: good physical and chemical stability
[4]; 60° C. (covered)
  Purity -7 days (peak area %): 99.35 peak area %
  XRPD: Constant
[5]
  XRPD before and after the DVS test: no obvious change in the XRPD
[5]; 25° C.
  DVS pattern, behaviour in words: the water content changes little in a wide humidity range
[6]
  crystalline form after dehydration: becomes crystalline form III again
[7]; fasting condition, female
  blood: plasma: 521%
[7]; fasting condition, male (first value)
  blood: plasma: 1452%
[7]; fasting condition, plasma
  plasma drug concentration, male relative to female: about 6 times
[7]; fasting condition, whole blood
  whole blood drug concentration, male relative to female: 1.9 times
[7]; female, plasma, Non-fast
  AUC(0-inf): 466 µg·h/mL
  Cmax: 24000 ng/mL
  MRT last: 12.6 h
  Tmax: 7.33 h
  half-life: 5.14 h
[7]; female, plasma, Non-fast, plasma, female, read-out: AUC0-24 h
  AUC(0-t): 378 µg·h/mL
[7]; female, plasma, Non-fast, plasma, female, read-out: AUClast
  AUC(0-t): 465 µg·h/mL
[7]; female, plasma, fast
  AUC(0-inf): 9.21 µg·h/mL
  Cmax: 1680 ng/mL
  MRT last: 8.06 h
  Tmax: 1.33 h
  half-life: 12 h
[7]; female, plasma, fast, plasma, female, read-out: AUC0-24 h
  AUC(0-t): 7.54 µg·h/mL
[7]; female, plasma, fast, plasma, female, read-out: AUClast
  AUC(0-t): 8.16 µg·h/mL
[7]; [8]
  AUC(0-inf): 955 µg·h/mL
  Cmax: 23500 ng/mL
  MRT last: 18.7 h
  Tmax: 6 h
  half-life: 25.1 h
[7]; female, whole blood, Non-fast, blood, female, read-out: AUC0-24 h
  AUC(0-t): 432 µg·h/mL
[7]; female, whole blood, Non-fast, blood, female, read-out: AUClast
  AUC(0-t): 675 µg·h/mL
[7]; [9]
  AUC(0-inf): 242 µg·h/mL
  Cmax: 10300 ng/mL
  MRT last: 14.1 h
  Tmax: 1.83 h
  half-life: 22.4 h
[7]; female, whole blood, fast, blood, female, read-out: AUC0-24 h
  AUC(0-t): 134 µg·h/mL
[7]; female, whole blood, fast, blood, female, read-out: AUClast
  AUC(0-t): 187 µg·h/mL
[7]; male, plasma, Non-fast
  AUC(0-inf): 367 µg·h/mL
  Cmax: 18900 ng/mL
  MRT last: 11.8 h
  Tmax: 4.67 h
  half-life: 5.33 h
[7]; male, plasma, Non-fast, plasma, male, read-out: AUC0-24 h
  AUC(0-t): 305 µg·h/mL
[7]; male, plasma, Non-fast, plasma, male, read-out: AUClast
  AUC(0-t): 366 µg·h/mL
[7]; male, plasma, fast
  AUC(0-inf): 40.2 µg·h/mL
  Cmax: 5700 ng/mL
  MRT last: 13.6 h
  Tmax: 9 h
[7]; male, plasma, fast, plasma, male, read-out: AUC0-24 h
  AUC(0-t): 48.8 µg·h/mL
[7]; male, plasma, fast, plasma, male, read-out: AUClast
  AUC(0-t): 81.4 µg·h/mL
[7]; [10]
  AUC(0-inf): 818 µg·h/mL
  Cmax: 19000 ng/mL
  MRT last: 18.9 h
  Tmax: 4.67 h
  half-life: 28.6 h
[7]; male, whole blood, Non-fast, blood, male, read-out: AUC0-24 h
  AUC(0-t): 353 µg·h/mL
[7]; male, whole blood, Non-fast, blood, male, read-out: AUClast
  AUC(0-t): 557 µg·h/mL
[7]; male, whole blood, fast, blood
  AUC(0-inf): 521 µg·h/mL
  Cmax: 14600 ng/mL
  MRT last: 19.5 h
  Tmax: 9.33 h
  half-life: 14.9 h
[7]; male, whole blood, fast, blood, male, read-out: AUC0-24 h
  AUC(0-t): 255 µg·h/mL
[7]; male, whole blood, fast, blood, male, read-out: AUClast
  AUC(0-t): 449 µg·h/mL
[7]; non-fasting condition, female
  blood: plasma: 116%
[7]; non-fasting condition, male (first value)
  blood: plasma: 114%
